Experiment [1] relates to A549 cells. Description: Cancer cell toxicity of CBD, WST-8 cell survival. As to conditions: Homo sapiens, A549, 48 h. It counts as cell-based. The procedure:
Specifically, A549 cells, a lung cancer cell line, were seeded in 96-well plates at a concentration of 1×10^4 cells/well, cultured in a 37° C., 10% CO2 incubator for 24 hours, then treated with CBD in a concentration-dependent manner and cultured under the same conditions for 48 hours. After completion of culture, 1/10 of WST-8 solution (Quanti-Max™, BIOMAX, Korea) was added to the medium, and after additional culture at 37° C. for 1 hour, the cell survival rate was determined by measuring absorbance at 450 nm, and expressed as a percentage of the control without any treatment. The experiment was conducted independently and repeated three times.
On the technique in general: Tetrazolium assays rely on reduction of a dye to a coloured formazan, in cell work by metabolically active cells.

In experiment [2] the test system is A549 cells. Briefly: Anti-cancer agents with or without CBD, WST-8 cell survival. The experiment is classed as cell-based. As to conditions: A549, 48 h. As for the experimental part:
After completion of culture, 1/10 of WST-8 solution (Quanti-Max™, BIOMAX, Korea) was added to the medium, and after additional culture at 37° C. for 1 hour, the cell survival rate was determined by measuring absorbance at 450 nm, and expressed as a percentage of the control without any treatment. The experiment was conducted independently and repeated three times.

For experiment [3], the system named is A549 cells. Description: Western blotting of apoptosis- and autophagy-related proteins after combined treatment. It counts as cell-based. As to conditions: A549, 24 h, etoposide combined with CBD (15 μM). As for the experimental part:
After completion of culture, the cells were harvested and the proteins were quantified using the bradford assay (Bio-Rad, japan), and the proteins (30 ug/well) were separated by electrophoresis on NuPAGE 4-12% Bis-Tris gels (Invitrogen) and transferred to polyvinylidene difluoride (PVDF). Next, the PVDF membrane was reacted with a primary antibody (Monoclonal antibody, Cell signaling technology, USA) specific for PARP[Poly (ADP-ribose) polymerase], cleaved caspase9, cleaved caspase8, LC3B or GAPDH for 1 hour at room temperature, followed by reacting with an anti-rabbit secondary antibody (Cell signaling technology) for 1 hour. The antibodies bound to PVDF were visualized using ECL Advance Western Blotting Detection Reagents (GE Healthcare, UK) and LAS 4000 imaging system (Fujifilm, Japan).
Background: A western blot detects proteins with antibodies after separation by electrophoresis.

Experiment [4] concerns A549 cells. Description: Apoptosis by Fluorescence Activated Cell Sorting (FACS). It counts as cell-based. Conditions: A549, combined treatment of etoposide and CBD compared to individual treatment. From the text:
In addition, the apoptosis results of the combination treatment were re-validated using a Fluorescence Activated Cell Sorting (FACS) system.

Experiment [5] has as its system A549 cells. Description: cells. Conditions: Homo sapiens, A549, 48 h.
Where [6] appears, read: Homo sapiens, read-out: IC50 (μM), with CBD (15 μM).
The mark [7] stands for this setting: Homo sapiens, read-out: IC50 (μM), without CBD.
The mark [8] stands for this setting: etoposide concentration-dependent.

Some results are limits rather than exact numbers.

For `C=C(C)[C@@H]1CCC(C)=C[C@H]1c1c(O)cc(CCCCC)cc1O` [CBD, 2-[(1R,6R)-3-methyl-6-prop-1-en-2-ylcyclohex-2-en-1-yl]-5-pentylbenzene-1,3-diol], the IC50 (usually the concentration at which inhibition is half-maximal) in the experiment with A549 cells [1] came out at 18.6 µM.
`COc1cc2nccc(Oc3ccc(NC(=O)C4(C(=O)Nc5ccc(F)cc5)CC4)cc3)c2cc1OC` [Cabozantinib (XL184), Cabozantinib]: the IC50 stood at 4.14 µM with A549 cells [2] (setting [6]) and 8.29 µM with A549 cells [2] (setting [7]).
For `N.N.O=C([O-])C1(C(=O)[O-])CCC1.[Pt+2]` [Carboplatin], the IC50 in the experiment on A549 cells [2] (read-out: IC50 (μM), 48 h, with CBD, with CBD (15 μM)) was > 100 µM.
For the compound `COc1cc([C@@H]2c3cc4c(cc3[C@@H](O[C@@H]3O[C@@H]5CO[C@@H](C)O[C@H]5[C@H](O)[C@H]3O)[C@H]3COC(=O)[C@H]23)OCO4)cc(OC)c1O` [Etoposide (VP-16), etoposide], the concentration for half-maximal inhibition (IC50) in the experiment with A549 cells [2] (setting [6]) came out at 51.4 µM. In addition, in the experiment with A549 cells [3], the “expression of Bcl-2 protein” value was “decreased” and the “expression of autophagy-related protein LC3-II” value is recorded as “increased”. Also, in the experiment with A549 cells [3] (setting [8]), the “expression of Bax protein” value is recorded as “increased”, the “expression of cleaved PARP protein” value is on record as “increased”, the “expression of cleaved caspase8 protein” value was “increased” and the “expression of cleaved caspase9 protein” value is “increased”. Moreover, the “number of early apoptotic cells” value with A549 cells [4] is recorded as “significantly increased”. The IC50 in the experiment with A549 cells [5] (read-out: cytotoxicity (IC50) of etoposide alone) was 106 µM. Further, the IC50 with A549 cells [5] (read-out: cytotoxicity (IC50) of etoposide upon combined treatment with CBD) came to 51.4 µM.
Consider `COc1cc2nccc(Oc3ccc(NC(=O)NC4CC4)c(Cl)c3)c2cc1C(N)=O` [Lenvatinib], for which the IC50 stood at 16.9 µM in the experiment on A549 cells [2] (setting [6]) and 19.9 µM with A549 cells [2] (setting [7]).
The corresponding values for `CNC(=O)c1cc(Oc2ccc(NC(=O)Nc3ccc(Cl)c(C(F)(F)F)c3)c(F)c2)ccn1` [Regorafenib] are 4.11 µM and 5.27 µM.
The corresponding values for `CNC(=O)c1cc(Oc2ccc(NC(=O)Nc3ccc(Cl)c(C(F)(F)F)c3)cc2)ccn1` [Sorafenib] are 4.26 µM and 8.97 µM.
In the same order, the values of `CCC1=C[C@@H]2CN(C1)Cc1c([nH]c3ccccc13)[C@@](C(=O)OC)(c1cc3c(cc1OC)N(C)[C@H]1[C@@](O)(C(=O)OC)[C@H](OC(C)=O)[C@]4(CC)C=CCN5CC[C@]31[C@@H]54)C2` [Vinorelbine] are 6.38 µM and 12.4 µM.

The values above are taken from patent US20240009211A1, “PHARMACEUTICAL COMPOSITION FOR TREATMENT OF LUNG CANCER COMPRISING CANNABIDIOL AND ANTICANCER AGENT AS ACTIVE INGREDIENTS, AND USE THEREOF” (NEOCANNBIO CO., LTD., priority 2022, published 2024).
